Ends that are not written are not given here.
Columns and labels:
[1] = test system: antibodies in sera from HCV-seropositive donors; assay: ELISA with HCV antibody-positive sera (biotinylated peptides on streptavidin- or avidin-coated plates, unbiotinylated peptides coated directly); type: binding, human; conditions: for optical density (450 nm): 20-fold dilution; for PEPTIDE ELISA (O.D.): Table 12, biotinylated 20-mers
Experimental: (§1) Where peptides were to be coated directly, stock solutions of the peptides were diluted in sodium carbonate buffer, pH 9.6 and used to coat polystyrene microtiter plates at a peptide concentration of 2 to 5 micrograms per milliliter for 1 hour at 37° C.
(§2) In cases where biotinylated peptides were to be evaluated, plates were first coated with streptavidin in sodium carbonate buffer, pH 9.6 at a concentration of 3 micrograms per milliliter for 1 hour at 37° C. The plates were then washed to remove excess, unbound protein. A working solution of the biotinylated peptide at 1 microgram per milliliter in sodium carbonate buffer was then added to the wells of the microtiter plate and incubated for 1 hours at 37° C.
(§3) Once the plates had been coated with antigen, any remaining free binding sites on the plastic were blocked with casein. After washing, a dilution of the appropriate antisera, usually 1:100, was added to the wells of the plates and incubated for 1 hour at 37° C.
(§4) After washing to remove unbound material, specific antibody binding was detected by incubating the plates with goat anti-human immunoglobulin antibodies conjugated to the enzyme horseradish peroxidase. Following removal of unbound conjugate by washing, a solution containing H2O2 and 3,3′,5,5′-tetramethylbenzidine was added.
(§5) Reactions were stopped after a suitable interval by addition of sulfuric acid. […] Absorbance measurements were made at a wavelength of 450 nanometers and all data are expressed as an optical density value at this wavelength.
The unbiotinylated peptides were adsorbed onto the wells of polystyrene microtiter plates at a concentration of 3 micrograms per milliliter.
The biotinylated peptides were bound at a concentration of 1 microgram per milliliter to streptavidin-coated microtiter plates. Sera known to contain antibodies to these peptides were used for the evaluation and were tested at a 20-fold dilution.
To investigate further the enhanced antibody recognition of biotinylated HCV peptides bound to streptavidin or avidin as compared to direct adsorption on plastic, the influence of peptide coating concentration was investigated. Three peptides (HCV peptides II, XI, and XVI) were coated in concentrations ranging from 10 nanograms per milliliter to 3 micrograms per milliliter in a volume of 200 microliters per microtiter plate well. For direct coating, the unbiotinylated versions of these peptides were used. The biotinylated versions of these peptides were used to coat wells to which streptavidin had previously been adsorbed. Sera known to contain antibodies to these peptides were used at a dilution of 1 to 100 to evaluate the magnitude of antibody binding.
(§6) Unbiotinylated HCV peptide I was coated directly onto the wells of a polystyrene ELISA plate at a concentration of 3 micrograms per milliliter in sodium carbonate buffer, pH 9.6. Biotinylated HCV peptide I was bound to streptavidin-coated wells using a stock solution containing the peptide at a concentration of 1 microgram per milliliter. The resulting plates were then incubated in parallel with a panel of sera from HCV-seropositive donors. […] Two of the sera (8326 and 8244) recognize the biotinylated version of this peptide far better than the unbiotinylated version. The specificity of the antibody reaction is also reflected by the low optical density values obtained for 5 serum samples from uninfected donors (F88, F89, F76, F136, and F6).
To determine how well biotinylated peptides would function in a mixture when bound to streptavidin- or avidin-coated plates, two mixtures were made of the N-terminally biotinylated versions of the HIV-1 peptides TM-HIV-1 (hereabove referred to as 1a.1) and V3-nm (hereabove referred to as 1b.4), the HIV-2 peptide TM-HIV-2 (hereabove referred to as 2a), and the hepatitis C virus peptides II, IX, and XVIII. […]

[2] = ELISA with seronegative / negative control sera (specificity); type: binding, human; conditions: negative serum
Experimental: as §1, §2, §3, §4, §5, §6
To determine how well biotinylated peptides would function in a mixture when bound to streptavidin- or avidin-coated plates, two mixtures were made of the N-terminally biotinylated versions of the HIV-1 peptides TM-HIV-1 (hereabove referred to as 1a.1) and V3-nm (hereabove referred to as 1b.4), the HIV-2 peptide TM-HIV-2 (hereabove referred to as 2a), and the hepatitis C virus peptides II, IX, and XVIII. Mixture A contained each of the six biotinylated peptides at a concentration of 1 microgram per milliliter (6 micrograms per milliliter peptide, total) while in mixture B, each peptide was present at a concentration of 0.1 microgram per milliliter (0.6 microgram per milliliter peptide, total). The individual peptides were coated at a concentration of 1 microgram per milliliter. For purposes of comparison, mixtures A and B were also coated directly onto the wells of a microtiter plate. Samples from HIV-1, HIV-2, and HCV-seropositive donors were tested and compared to sera from seronegative blood donors. A cut-off absorbance value of 0.250 was used to determine whether a reaction was positive or negative. Absorbance values equal or greater than 0.250 were considered positive while absorbance values below this value were considered negative.

## TRKTSERSQPRGRRQPIPKV [listing 1 of 2 here]
[1]; Table 4E, serum 8272
  optical density (450 nm): 1.220
[1]; Table 4E, serum 8273
  optical density (450 nm): 1.026
[1]; Table 4E, serum 8274
  optical density (450 nm): 2.662
[1]; Table 4E, serum 8275
  optical density (450 nm): 1.724
[1]; Table 4E, serum 8276
  optical density (450 nm): 2.616
[1]; Table 4E, serum 8277
  optical density (450 nm): 1.796
[1]; Table 4E, serum 8278
  optical density (450 nm): 1.746
[1]; Table 4E, serum 8284
  optical density (450 nm): 0.757
[1]; serum 0843
  PEPTIDE ELISA (O.D.): 1.378
[1]; serum 8240
  PEPTIDE ELISA (O.D.): 2.021
[1]; serum 8241
  PEPTIDE ELISA (O.D.): 0.274
[1]; serum 8242
  PEPTIDE ELISA (O.D.): 2.315
[1]; serum 8332
  PEPTIDE ELISA (O.D.): 1.455
[1]; serum 8339
  PEPTIDE ELISA (O.D.): 2.598
[1]; serum 8350
  PEPTIDE ELISA (O.D.): 0.685
[1]; serum 8377
  PEPTIDE ELISA (O.D.): 0.076
[1]; serum 8378
  PEPTIDE ELISA (O.D.): 1.228
[1]; serum 8388
  PEPTIDE ELISA (O.D.): 2.162
[2]; Table 4E
  optical density (450 nm): 0.070

## TRKTSERSQPRGRRQPIPKV [listing 2 of 2 here]
[1]; Table 4E, serum 8272
  optical density (450 nm): 0.589
[1]; Table 4E, serum 8273
  optical density (450 nm): 0.294
[1]; Table 4E, serum 8274
  optical density (450 nm): 1.820
[1]; Table 4E, serum 8275
  optical density (450 nm): 1.728
[1]; Table 4E, serum 8276
  optical density (450 nm): 2.194
[1]; Table 4E, serum 8277
  optical density (450 nm): 0.770
[1]; Table 4E, serum 8278
  optical density (450 nm): 1.391
[1]; Table 4E, serum 8284
  optical density (450 nm): 0.040
[2]; Table 4E
  optical density (450 nm): 0.047

## RNTNRRPQDVKFPGGGQIVG
[1]; Table 4D, serum 8241
  optical density (450 nm): 1.219
[1]; Table 4D, serum 8242
  optical density (450 nm): 1.976
[1]; Table 4D, serum 8243
  optical density (450 nm): 1.859
[1]; Table 4D, serum 8247
  optical density (450 nm): 1.072
[1]; Table 4D, serum 8248
  optical density (450 nm): 2.742
[1]; Table 4D, serum 8250
  optical density (450 nm): 2.471
[1]; Table 4D, serum 8271
  optical density (450 nm): 1.471
[1]; Table 4D, serum 8272
  optical density (450 nm): 2.471
[1]; Table 4D, serum 8273
  optical density (450 nm): 1.543
[1]; Table 4D, serum 8274
  optical density (450 nm): 2.503
[1]; Table 4D, serum 8275
  optical density (450 nm): 1.595
[1]; Table 4D, serum 8276
  optical density (450 nm): 1.976
[1]; Table 4D, serum 8277
  optical density (450 nm): 0.735
[2]; Table 4D
  optical density (450 nm): 0.050

Source: US6667387B1, “HCV core peptides” (priority 1992, dated 2003)
